These are literature values, as cited in patent US20230414783A1, “Biliary Delivery Methods, Compositions and Kits for Use Therein” (AMBYS MEDICINES, INC., priority 2020, published 2023).

The test system of this data set is lysyl oxidase (LOX) family enzymes. Particulars: subcutaneous injection or intravenous infusion; human subjects.

As to `Cc1cc(F)c(C(=O)Nc2cccc(-c3nncn3C(C)C)n2)cc1-n1cnc(C2CC2)c1` [selonsertib], the clinical efficacy entry is “did not demonstrate clinical efficacy”.
